Tests used:
NCI-H226 = assay: NCI 60 cell line panel screen (SRB); format: cell-based, human
KM12 = assay: NCI 60 cell line panel screen (SRB); format: cell-based, human; details: for Log10GI50: Colon Cancer, KM12; for Log10LC50 / Log10TGI50: KM12 (Colon Cancer); for Log10LC50: LC50: PG=−50; for Log10TGI50: TGI: PG=0
[1] = test system: P. berghei NY malaria parasite; assay: Antimalarial efficacies in vivo in mice
Excerpt: Neither overt toxicity nor behavioral modification was observed due to drug administration in any of these mouse experiments.

T-47D = assay: NCI 60 cell line panel screen (SRB); format: cell-based, human; details: for Log10GI50: Breast Cancer, T-47D; for Log10LC50: LC50: PG=−50
OVCAR-3 = assay: NCI 60 cell line panel screen (SRB); format: cell-based, human; details: for Log10LC50 / Log10TGI50: OVCAR-3 (Ovarian Cancer); for Log10LC50: LC50: PG=−50; for Log10TGI50: TGI: PG=0; for Log10GI50: Ovarian Cancer, OVCAR-3
MDA-N = assay: NCI 60 cell line panel screen (SRB); format: cell-based, human; details: Breast Cancer, MDA-N
OVCAR-8 = assay: NCI 60 cell line panel screen (SRB); format: cell-based, human; details: for Log10LC50: LC50: PG=−50; for Log10GI50: Ovarian Cancer, OVCAR-8
HS 578T = assay: NCI 60 cell line panel screen (SRB); format: cell-based, human
60 cell line panel = format: cell-based; details: for Log10LC50 Delta / Log10LC50 Range / Log10TGI50 Delta / Log10TGI50 Range: 60 cell line panel
SW-620 = assay: NCI 60 cell line panel screen (SRB); format: cell-based, human
A498 = assay: NCI 60 cell line panel screen (SRB); format: cell-based, human
UACC-62 = assay: NCI 60 cell line panel screen (SRB); format: cell-based, human
OVCAR-4 = assay: NCI 60 cell line panel screen (SRB); format: cell-based, human
DU-145 = assay: NCI 60 cell line panel screen (SRB); format: cell-based, human
SR = assay: NCI 60 cell line panel screen (SRB); format: cell-based, human; details: SR (Leukemia)
HCC-2998 = assay: NCI 60 cell line panel screen (SRB); format: cell-based, human
SN12C = assay: NCI 60 cell line panel screen (SRB); format: cell-based, human
LOX IMVI = assay: NCI 60 cell line panel screen (SRB); format: cell-based, human
[2] = mean value over the 60 cell line panel

SMILES: CC1CCC2C(C)C(CC(COC(=O)CCC(=O)O)CC3OC4OC5(C)CCC6C(C)CCC(C3C)C46OO5)OC3OC4(C)CCC1C32OO4 (stereo not shown) [Compound 8a, bis-trioxane primary succinate monoester]
- Log10LC50 (NCI-H226; NCI-H226 (Non-Small Cell Lung Cancer), LC50: PG=−50): >−4.30 log10M
- Log10TGI50 (NCI-H226; NCI-H226 (Non-Small Cell Lung Cancer), TGI: PG=0): −6.67 log10M
- Log10GI50 (NCI-H226; Non-Small Cell Lung Cancer, NCI-H226): <−8.30
- Log10GI50 (KM12): <−8.30
- Log10LC50 (KM12): −4.60 log10M
- Log10TGI50 (KM12): <−8.30 log10M
- ED50 ([1]; route IV): 2.2 mg/kg × 4
- ED90 ([1]; route IV): 6.3 mg/kg × 4
- % Parasite Supression at 10 mg/kg ([1]; route IV): 81.0%
- ED50 ([1]; route PO): 9.0 mg/kg × 4
- ED90 ([1]; route PO): 15.0 mg/kg × 4
- % Parasite Supression at 10 mg/kg ([1]; route PO): 79.2%
- Log10GI50 (T-47D): <−8.30
- Log10LC50 (T-47D; T-47D (Breast Cancer)): >−4.30 log10M
- Log10TGI50 (T-47D; T-47D (Breast Cancer), TGI: PG=0): −4.77 log10M
- Log10LC50 (OVCAR-3): >−4.30 log10M
- Log10TGI50 (OVCAR-3): −8.21 log10M
- Log10GI50 (OVCAR-3): <−8.30
- Log10GI50 (MDA-N): −7.29
- Log10LC50 (OVCAR-8; OVCAR-8 (Ovarian Cancer)): >−4.30 log10M
- Log10TGI50 (OVCAR-8; OVCAR-8 (Ovarian Cancer), TGI: PG=0): >−4.30 log10M
- Log10GI50 (OVCAR-8): >−4.30
- Log10GI50 (HS 578T; Breast Cancer, HS 578T): >−4.30
- Log10LC50 (HS 578T; HS 578T (Breast Cancer), LC50: PG=−50): >−4.30 log10M
- Log10TGI50 (HS 578T; HS 578T (Breast Cancer), TGI: PG=0): >−4.30 log10M
- Log10GI50 Delta (60 cell line panel): 1.29
- Log10GI50 Range (60 cell line panel): 4.00
- Log10LC50 Delta (60 cell line panel): 0.46
- Log10LC50 Range (60 cell line panel): 0.48
- Log10TGI50 Delta (60 cell line panel): 3.26
- Log10TGI50 Range (60 cell line panel): 4.00
- growth inhibition in words (60 cell line panel; colon cancer KM12, ovarian cancer OVCAR 3, breast cancer MDA-MB-435): selectively and strong inhibitory
- Log10GI50 MG MID (60 cell line panel; mean over panel): −7.01
- Log10LC50 MG MID (60 cell line panel; [2]): −4.32 log10M
- Log10TGI50 MG MID (60 cell line panel; [2]): −5.04 log10M

SMILES: CC(=O)O[C@H]1C(=O)[C@@]2(C)[C@H]([C@H](OC(=O)c3ccccc3)[C@]3(O)C[C@H](OC(=O)[C@H](O)[C@@H](NC(=O)c4ccccc4)c4ccccc4)C(C)=C1C3(C)C)[C@]1(OC(C)=O)CO[C@@H]1C[C@@H]2O [Paclitaxel, paclitaxel, reference compound]
- Log10GI50 (KM12): −11.43
- Log10LC50 (KM12): >−4.00 log10M
- Log10TGI50 (KM12): −4.36 log10M
- Log10GI50 (SW-620; Colon Cancer, SW-620): −11.60
- Log10LC50 (SW-620; SW-620 (Colon Cancer), LC50: PG=−50): >−4.00 log10M
- Log10TGI50 (SW-620; SW-620 (Colon Cancer), TGI: PG=0): >−4.00 log10M
- Log10GI50 (T-47D): −9.81
- Log10LC50 (T-47D; T-47D (Breast Cancer)): >−4.00 log10M
- Log10LC50 (OVCAR-3): >−4.00 log10M
- Log10TGI50 (OVCAR-3): −4.55 log10M
- Log10GI50 (OVCAR-3): −10.40
- Log10LC50 (A498; A498 (Renal Cancer), LC50: PG=−50): −4.13 log10M
- Log10GI50 (A498; Renal Cancer, A498): −7.14
- Log10GI50 (UACC-62; Melanoma, UACC-62): −10.46
- Log10LC50 (UACC-62; UACC-62 (Melanoma), LC50: PG=−50): −4.19 log10M
- Log10TGI50 (UACC-62; UACC-62 (Melanoma), TGI: PG=0): −4.71 log10M
- Log10GI50 (MDA-N): <−13.00
- Log10LC50 (OVCAR-8; OVCAR-8 (Ovarian Cancer)): >−4.00 log10M
- Log10GI50 (OVCAR-8): −10.75
- Log10LC50 (OVCAR-4; OVCAR-4 (Ovarian Cancer), LC50: PG=−50): >−4.00 log10M
- Log10TGI50 (OVCAR-4; OVCAR-4 (Ovarian Cancer), TGI: PG=0): −4.19 log10M
- Log10GI50 (OVCAR-4; Ovarian Cancer, OVCAR-4): −5.00
- Log10LC50 (DU-145; DU-145 (Prostate Cancer), LC50: PG=−50): >−4.00 log10M
- Log10TGI50 (DU-145; DU-145 (Prostate Cancer), TGI: PG=0): >−4.00 log10M
- Log10GI50 (DU-145; Prostate Cancer, DU-145): −9.38
- Log10GI50 Delta (60 cell line panel): −10.15
- Log10GI50 Range (60 cell line panel): 8.00
- Log10LC50 Delta (60 cell line panel): −4.06
- Log10LC50 Range (60 cell line panel): .045
- Log10TGI50 Delta (60 cell line panel): −4.54
- Log10TGI50 Range (60 cell line panel): 7.20
- Log10LC50 (SR; LC50: PG=−50): >−4.00 log10M
- Log10TGI50 (SR; TGI: PG=0): >−4.00 log10M
- Log10GI50 (HCC-2998; Colon Cancer, HCC-2998): −12.34
- Log10LC50 (HCC-2998; HCC-2998 (Colon Cancer), LC50: PG=−50): −4.26 log10M
- Log10TGI50 (HCC-2998; HCC-2998 (Colon Cancer), TGI: PG=0): −4.77 log10M
- Log10GI50 (SN12C; Renal Cancer, SN12C): −9.53
- Log10LC50 (SN12C; SN12C (Renal Cancer), LC50: PG=−50): >−4.00 log10M
- Log10LC50 (LOX IMVI; LOX IMVI (Melanoma), LC50: PG=−50): >−4.15 log10M
- Log10TGI50 (LOX IMVI; LOX IMVI (Melanoma), TGI: PG=0): −4.65 log10M
- Log10GI50 (LOX IMVI; Melanoma, LOX IMVI): −11.80

Source: patent US7417156B2, “Orally active, antimalarial, anticancer, artemisinin-derived trioxane dimers” (Johns Hopkins University, priority 2002, dated 2008)
